Results taken from patent publication US20080114080A1, “Compositions and Methods for the Treatment of Cystic Fibrosis and other Pulmonary Disorders” (priority 2006, published 2008).
In brackets after ≈: the same amount, converted by molar mass. Where two headings read alike, the source gives them in different places.

How the values were obtained:
[1] = cited from earlier work
[2] = recent report; cited from earlier work
[3] = molecular target: mutant forms (ΔF508) of CFTR (Homo sapiens, UniProt P13569, DEL508-508); settings: cited from earlier work
[4] = system: rat colon epithelial cells; settings: cited from earlier work
[5] = system: chemokine receptors (CXCR2/b); test: Cl- transport/efflux in Calu-3 cells, IL-8 via chemokine receptors; assay type: cell-based, human
[6] = system: adenylyl cyclase activity; test: adenylyl cyclase activity in Calu-3 cells; assay type: cell-based, human; settings: FIG. 6
[7] = molecular target: T1, C5aR (CD88) (Homo sapiens, UniProt P21730); test: Cl- efflux in Calu-3 cells, C5a via C5aR; assay type: cell-based
T1 construct: endogenous in cells; host or cells: Calu-3 (ATCC HTB-55)
T1 sequence (P21730 1-350): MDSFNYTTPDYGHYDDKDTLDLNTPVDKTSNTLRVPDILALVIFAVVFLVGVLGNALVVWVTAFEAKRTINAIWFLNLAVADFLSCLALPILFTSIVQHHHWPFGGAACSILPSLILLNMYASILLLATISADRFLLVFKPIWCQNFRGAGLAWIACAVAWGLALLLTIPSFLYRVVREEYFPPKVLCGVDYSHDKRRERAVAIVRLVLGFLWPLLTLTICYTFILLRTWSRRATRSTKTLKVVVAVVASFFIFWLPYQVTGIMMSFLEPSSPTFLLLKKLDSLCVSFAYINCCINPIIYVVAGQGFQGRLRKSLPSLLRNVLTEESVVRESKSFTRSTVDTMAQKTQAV

mutant forms (ΔF508) of CFTR, sequence (P13569 with tags, fused parts or gaps DEL508-508): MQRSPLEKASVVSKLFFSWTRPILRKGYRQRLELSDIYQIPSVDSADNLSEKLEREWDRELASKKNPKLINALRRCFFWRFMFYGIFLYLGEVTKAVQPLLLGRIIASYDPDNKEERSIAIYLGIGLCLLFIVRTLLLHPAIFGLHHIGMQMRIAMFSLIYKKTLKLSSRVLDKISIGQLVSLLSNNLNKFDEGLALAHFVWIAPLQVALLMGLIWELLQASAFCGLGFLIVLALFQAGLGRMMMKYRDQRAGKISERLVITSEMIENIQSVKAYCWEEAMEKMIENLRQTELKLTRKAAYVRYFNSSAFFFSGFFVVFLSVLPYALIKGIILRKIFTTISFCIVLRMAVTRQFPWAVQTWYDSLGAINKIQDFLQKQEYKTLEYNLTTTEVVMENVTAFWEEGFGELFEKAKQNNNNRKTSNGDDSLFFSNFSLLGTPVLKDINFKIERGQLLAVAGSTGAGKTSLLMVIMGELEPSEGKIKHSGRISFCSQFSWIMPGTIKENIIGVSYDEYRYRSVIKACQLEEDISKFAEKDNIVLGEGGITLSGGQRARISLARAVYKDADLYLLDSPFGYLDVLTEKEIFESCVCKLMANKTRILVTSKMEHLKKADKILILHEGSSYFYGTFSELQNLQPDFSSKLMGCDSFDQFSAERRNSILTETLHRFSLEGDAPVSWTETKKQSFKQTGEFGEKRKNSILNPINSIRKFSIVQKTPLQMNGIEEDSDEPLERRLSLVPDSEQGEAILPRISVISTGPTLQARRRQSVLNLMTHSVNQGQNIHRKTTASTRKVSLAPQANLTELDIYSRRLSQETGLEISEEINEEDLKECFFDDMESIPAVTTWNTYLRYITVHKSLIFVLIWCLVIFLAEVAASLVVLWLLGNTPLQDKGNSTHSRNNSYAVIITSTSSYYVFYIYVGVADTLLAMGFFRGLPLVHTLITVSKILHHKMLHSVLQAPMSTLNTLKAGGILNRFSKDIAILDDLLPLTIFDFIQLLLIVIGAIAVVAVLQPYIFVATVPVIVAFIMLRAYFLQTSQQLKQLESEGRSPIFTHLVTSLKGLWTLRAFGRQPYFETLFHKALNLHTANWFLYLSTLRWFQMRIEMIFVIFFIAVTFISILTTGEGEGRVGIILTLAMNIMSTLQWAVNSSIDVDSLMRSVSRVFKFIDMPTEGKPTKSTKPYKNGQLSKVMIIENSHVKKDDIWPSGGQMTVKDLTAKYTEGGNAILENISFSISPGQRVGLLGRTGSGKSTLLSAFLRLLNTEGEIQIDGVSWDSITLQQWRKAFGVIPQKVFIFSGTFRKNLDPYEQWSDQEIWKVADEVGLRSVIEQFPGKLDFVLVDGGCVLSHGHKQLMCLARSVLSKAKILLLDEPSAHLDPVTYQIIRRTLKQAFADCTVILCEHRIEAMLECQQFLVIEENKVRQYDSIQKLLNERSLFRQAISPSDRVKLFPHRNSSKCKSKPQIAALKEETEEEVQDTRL

CNc1ccc2oc(C[C@H]3O[C@@]4(CC[C@H]3C)O[C@H]([C@H](C)C(=O)c3ccc[nH]3)[C@H](C)C[C@H]4C)nc2c1C(=O)O [A23187, calcimycin]
Solubility ([1]; in DMSO): 50 mg/mL (≈ 95.5 mM)
Solubility ([1]; in EtOH): 5 mg/mL (≈ 9.55 mM)

CCCn1c(=O)c2[nH]c(C3CCCC3)nc2n(CCC)c1=O [CPX, 8-cyclo-pentyl-1,3-dipropylxanthine]
efficacy in treating mild cystic fibrosis [2]: somewhat effective

CC(C)Cn1c(=O)n(C)c(=O)c2[nH]cnc21 [IBMX]
activity of mutant CFTR, chloride transport function [3]: able to stimulate some activity

O=c1c(O)c(-c2ccc(O)c(O)c2)oc2cc(O)cc(O)c12 [quercetin]
Cl- secretion [4]: induce Cl^− secretion

IL-8: chemokine released on activation of innate immunity, activates CXCR2
basal levels of Cl- transport ([5]; Calu-3 cells, via CXCR2/b, FIG. 9): inhibits
cAMP dependent Cl- efflux ([5]; FIG. 10): inhibits

B1: C5a: proinflammatory anaphylatoxin peptide generated during complement activation, acts through C5aR (protein, UniProt P01031 678-751, looked up)
C5a anaphylatoxin: TLQKKIEEIAAKYKHSVVKKCCYDGACVNNDETCEQRAARISLGPRCIKAFTECCVVASQLRANISHKDMQLGR
modifications: C5a anaphylatoxin
adenylyl cyclase activity [6]: inhibits
basal Cl- efflux ([7]; Calu-3 cells, via C5aR (CD88), FIG. 7): inhibits
cAMP dependent Cl- efflux ([7]; FIG. 8): inhibits
